What was measured:
[1] = test system: Mycobacterium tuberculosis; test: The compound was evaluated for its kinetic parameter (Km) against type 2 Dehydroquinase of Mycobacterium tuberculosis
[2] = test system: Aspergillus nidulans; test: The compound was evaluated for its kinetic parameter (Km) against type 2 Dehydroquinase of Aspergillus nidulans
[3] = test system: Mycobacterium tuberculosis; test: Kcat value was evaluated against type 2 Dehydroquinase of Mycobacterium tuberculosis
[4] = test system: Aspergillus nidulans; test: Kcat value was evaluated against type 2 Dehydroquinase of Aspergillus nidulans
[5] = biological target: T1, 3-dehydroquinate dehydratase (Escherichia coli K-12) (UniProt P05194); test: Kcat / Km value was evaluated against type 1 Dehydroquinase of Escherichia coli
T1 sequence (whole entry): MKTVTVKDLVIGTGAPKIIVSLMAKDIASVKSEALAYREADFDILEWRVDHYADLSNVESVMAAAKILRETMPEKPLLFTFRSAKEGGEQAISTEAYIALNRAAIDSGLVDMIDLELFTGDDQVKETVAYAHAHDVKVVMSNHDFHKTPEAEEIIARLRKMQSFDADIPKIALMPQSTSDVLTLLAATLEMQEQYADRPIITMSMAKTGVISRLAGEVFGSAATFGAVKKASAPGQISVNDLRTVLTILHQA

[6] = biological target: T1, 3-dehydroquinate dehydratase (Escherichia coli K-12); test: Kcat value was evaluated against type 1 Dehydroquinase of Escherichia coli

Structure (SMILES) | Km [1] | Km [2] | k cat [3] | k cat [4] | k cat/Km [5] | k cat [6]
O=C1CC(O)(C(=O)O)CC(O)C1O (stereo unspecified) | 13 µM | 122 µM | 2.6 s⁻¹ | 313 s⁻¹ |  | 
O=C1CC(O)(C(=O)O)C(F)C(O)C1O (stereo in doubt; 2) | 3.6 µM | 39 µM | 0.14 s⁻¹ | 4.6 s⁻¹ | 310000 M⁻¹ s⁻¹ | 3 s⁻¹
O=C1CC(O)(C(=O)O)C(F)C(O)C1O (stereo in doubt; 3) | 7.9 µM | 50 µM | 1.1 s⁻¹ | 46 s⁻¹ | 310000 M⁻¹ s⁻¹ | 36 s⁻¹

— ChEMBL document CHEMBL1133372, “Mechanistic studies on type I and type II dehydroquinase with (6R)- and (6S)-6-fluoro-3-dehydroquinic acids” (Bioorg Med Chem Lett, 2000)
